# Measured values from ChEMBL document CHEMBL1201862, “PubChem BioAssay data set” (2004).
#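 Test compounds were applied to cells in 96-well plates for 48 hours at 5 doses. GI50 marks 50% less growth.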 Activity calls are given as the source filed them. Rule as the data show it: active = GI50 up to about 1.1 µM and inactive = higher.
# Assays:
# Experiment in all cases: NCI anticancer screen, dose series, 48 h
# K562 = tested on: K562
# OVCAR-4 = tested on: OVCAR-4
# PC-3 = tested on: PC-3
# A498 = tested on: A498
# 786-0 = tested on: 786-0
# RPMI-8226 = tested on: RPMI-8226
# SK-OV-3 = tested on: SK-OV-3
# MOLT-4 = tested on: MOLT-4
# MCF7 = tested on: MCF7
# UO-31 = tested on: UO-31
# COLO 205 = tested on: COLO 205
# Hs-578T = tested on: Hs-578T
# SNB-75 = tested on: SNB-75
# OVCAR-3 = tested on: OVCAR-3
# KM12 = tested on: KM12
# NCI-H460 = tested on: NCI-H460
# OVCAR-8 = tested on: OVCAR-8
# OVCAR-5 = tested on: OVCAR-5
# LOX IMVI = tested on: LOX IMVI
# IGROV-1 = tested on: IGROV-1
# M14 = tested on: M14
# HOP-92 = tested on: HOP-92
# A549 = tested on: A549
# ACHN = tested on: ACHN
# SNB-19 = tested on: SNB-19
# NCI-H23 = tested on: NCI-H23
# SW-620 = tested on: SW-620
# SF-295 = tested on: SF-295
# HCT-15 = tested on: HCT-15
# RXF 393 = tested on: RXF 393
# HL-60 = tested on: HL-60
# T47D = tested on: T47D
# NCI-H226 = tested on: NCI-H226
# NCI/ADR-RES = tested on: NCI/ADR-RES
# HCT-116 = tested on: HCT-116
# CAKI-1 = tested on: CAKI-1
# MDA-MB-435 = tested on: MDA-MB-435
# UACC-257 = tested on: UACC-257
# SK-MEL-2 = tested on: SK-MEL-2
# SN12C = tested on: SN12C
# SF-539 = tested on: SF-539
# MDA-N = tested on: MDA-N
# HCC 2998 = tested on: HCC 2998
# U-251 = tested on: U-251
# BT-549 = tested on: BT-549
# MDA-MB-231 = tested on: MDA-MB-231
# UACC-62 = tested on: UACC-62
# SK-MEL-5 = tested on: SK-MEL-5
# EKVX = tested on: EKVX
# Malme-3M = tested on: Malme-3M
# SR = tested on: SR
# DU-145 = tested on: DU-145
# NCI-H522 = tested on: NCI-H522
# SK-MEL-28 = tested on: SK-MEL-28
# SF-268 = tested on: SF-268
# TK-10 = tested on: TK-10
# CCRF-CEM = tested on: CCRF-CEM
# HOP-62 = tested on: HOP-62
# HT-29 = tested on: HT-29
structure (smiles),measurement,setting,value
Cn1c(-c2ccc[se]2)ccc1-c1ccc(CO)[se]1,GI50,K562,0.159 µM (active)
same,GI50,OVCAR-4,0.0392 µM (active)
same,GI50,PC-3,42.5 µM (inactive)
same,GI50,A498,0.0389 µM (active)
same,GI50,786-0,25.6 µM (inactive)
same,GI50,RPMI-8226,1.28 µM (inactive)
same,GI50,SK-OV-3,17.1 µM (inactive)
same,GI50,MOLT-4,21.1 µM (inactive)
same,GI50,MCF7,0.0139 µM (active)
same,GI50,UO-31,36.3 µM (inactive)
same,GI50,COLO 205,0.367 µM (active)
same,GI50,Hs-578T,33 µM (inactive)
same,GI50,SNB-75,> 49.4 µM (inactive)
same,GI50,OVCAR-3,0.0348 µM (active)
same,GI50,KM12,32.1 µM (inactive)
same,GI50,NCI-H460,0.0206 µM (active)
same,GI50,OVCAR-8,33.1 µM (inactive)
same,GI50,OVCAR-5,< 0.0209 µM (active)
same,GI50,LOX IMVI,21.8 µM (inactive)
same,GI50,IGROV-1,< 0.01 µM (active)
same,GI50,M14,> 66.2 µM (inactive)
same,GI50,HOP-92,7.41 µM (inactive)
same,GI50,A549,52.6 µM (inactive)
same,GI50,ACHN,23.2 µM (inactive)
same,GI50,SNB-19,> 46.5 µM (inactive)
same,GI50,NCI-H23,24.9 µM (inactive)
same,GI50,SW-620,0.133 µM (active)
same,GI50,SF-295,31.3 µM (inactive)
same,GI50,HCT-15,18.3 µM
same,GI50,RXF 393,0.239 µM (active)
same,GI50,HL-60,10 µM (inactive)
same,GI50,T47D,0.0405 µM (active)
same,GI50,NCI-H226,0.302 µM (active)
same,GI50,NCI/ADR-RES,9.48 µM (inactive)
same,GI50,HCT-116,0.826 µM (active)
same,GI50,CAKI-1,< 0.01 µM (active)
same,GI50,MDA-MB-435,17.3 µM (inactive)
same,GI50,UACC-257,0.0461 µM (active)
same,GI50,SK-MEL-2,34.7 µM (inactive)
same,GI50,SN12C,> 76.6 µM (inactive)
same,GI50,SF-539,26.9 µM (inactive)
same,GI50,MDA-N,18 µM (inactive)
same,GI50,HCC 2998,0.792 µM (active)
same,GI50,U-251,< 0.0129 µM (active)
same,GI50,BT-549,27.7 µM (inactive)
same,GI50,MDA-MB-231,32.6 µM (inactive)
same,GI50,UACC-62,0.045 µM (active)
same,GI50,SK-MEL-5,24.9 µM (inactive)
same,GI50,EKVX,32.7 µM (inactive)
same,GI50,Malme-3M,10.2 µM (inactive)
same,GI50,SR,10.4 µM (inactive)
same,GI50,DU-145,35.9 µM (inactive)
same,GI50,NCI-H522,27.9 µM (inactive)
same,GI50,SK-MEL-28,52.8 µM (inactive)
same,GI50,SF-268,44 µM (inactive)
same,GI50,TK-10,0.0129 µM (active)
same,GI50,CCRF-CEM,17.1 µM (inactive)
COC(=O)/C=C1\C(=O)N(C(C)=O)c2ccc(Br)cc21,GI50,K562,7.69 µM (inactive)
same,GI50,OVCAR-4,13.2 µM (inactive)
same,GI50,PC-3,8.75 µM (inactive)
same,GI50,A498,21.9 µM (inactive)
same,GI50,786-0,5.46 µM (inactive)
same,GI50,RPMI-8226,2.66 µM (inactive)
same,GI50,SK-OV-3,15.4 µM (inactive)
same,GI50,MOLT-4,3.03 µM (inactive)
same,GI50,MCF7,4.5 µM (inactive)
same,GI50,UO-31,0.69 µM (active)
same,GI50,HOP-62,13.2 µM (inactive)
same,GI50,COLO 205,13.7 µM (inactive)
same,GI50,Hs-578T,8.39 µM (inactive)
same,GI50,SNB-75,8.59 µM (inactive)
same,GI50,OVCAR-3,4.76 µM (inactive)
same,GI50,KM12,14.3 µM (inactive)
same,GI50,NCI-H460,14.6 µM (inactive)
same,GI50,OVCAR-8,8.43 µM (inactive)
same,GI50,OVCAR-5,17.3 µM (inactive)
same,GI50,LOX IMVI,7.89 µM (inactive)
same,GI50,IGROV-1,7.6 µM (inactive)
same,GI50,M14,10.4 µM (inactive)
same,GI50,HOP-92,13.6 µM (inactive)
same,GI50,A549,17.5 µM (inactive)
same,GI50,ACHN,11.6 µM (inactive)
same,GI50,SNB-19,14.3 µM (inactive)
same,GI50,NCI-H23,15.3 µM (inactive)
same,GI50,SW-620,6.03 µM (inactive)
same,GI50,SF-295,16.9 µM (inactive)
same,GI50,HCT-15,6.75 µM
same,GI50,RXF 393,7.46 µM (inactive)
same,GI50,HL-60,2.23 µM (inactive)
same,GI50,T47D,5.02 µM (inactive)
same,GI50,NCI-H226,15.1 µM (inactive)
same,GI50,NCI/ADR-RES,11.7 µM (inactive)
same,GI50,HCT-116,6.92 µM (inactive)
same,GI50,CAKI-1,21.3 µM (inactive)
same,GI50,MDA-MB-435,9.35 µM (inactive)
same,GI50,UACC-257,10.7 µM (inactive)
same,GI50,SK-MEL-2,13.9 µM (inactive)
same,GI50,SN12C,5.71 µM (inactive)
same,GI50,SF-539,4.67 µM (inactive)
same,GI50,MDA-N,11 µM (inactive)
same,GI50,HCC 2998,17.7 µM (inactive)
same,GI50,U-251,8.05 µM (inactive)
same,GI50,BT-549,9.08 µM (inactive)
same,GI50,MDA-MB-231,14.9 µM (inactive)
same,GI50,HT-29,8.87 µM (inactive)
same,GI50,UACC-62,11.6 µM (inactive)
same,GI50,SK-MEL-5,9.68 µM (inactive)
same,GI50,EKVX,15.2 µM (inactive)
same,GI50,Malme-3M,14.1 µM (inactive)
same,GI50,SR,2.8 µM (inactive)
same,GI50,DU-145,12.8 µM (inactive)
same,GI50,NCI-H522,3.73 µM (inactive)
same,GI50,SK-MEL-28,14.5 µM (inactive)
same,GI50,SF-268,7.46 µM (inactive)
same,GI50,TK-10,6.31 µM (inactive)
same,GI50,CCRF-CEM,1.47 µM (inactive)
